This is an account of results in ChEMBL document CHEMBL6114992, “Design, synthesis, biological evaluation, and mechanism of action of new pyrazines as anticancer agents in vitro and in vivo” (Bioorg Med Chem, 2025).

For data set [1], the system named is KG-1. Nature of the data set: Downregulation of Bcl-XL expression in human KG-1 cells incubated for 48 hrs by Western blot analysis. Format: functional, cell-based. As to conditions: dose 0.5-2.5 µM.
Data set [2] deals with KG-1. Nature of the data set: Upregulation of p21 expression in human KG-1 cells incubated for 48 hrs by Western blot analysis. To be noted: dose 0.5-2.5 µM. Format: functional, cell-based. A general note: Immunoblotting shows a protein as a band on a membrane.
Data set [3] deals with SK-OV-3. In words: Downregulation of TAZ expression in human SK-OV-3 cells incubated for 48 hrs by Western blot analysis. The class given is functional, cell-based. As to conditions: dose 0.5-2.5 µM.
In data set [4] the test system is THP-1. In words: Downregulation of Bcl-XL expression in human THP-1 cells incubated for 48 hrs by Western blot analysis. Format: functional, cell-based. As to conditions: dose 0.5-2.5 µM.
Data set [5] has as its system SK-OV-3. Nature of the data set: Downregulation of c-Myc expression in human SK-OV-3 cells incubated for 48 hrs by Western blot analysis. The class given is functional, cell-based. To be noted: dose 0.5-2.5 µM.
For data set [6], the system named is THP-1. Nature of the data set: Induction of apoptosis in human THP-1 cells assessed as early apoptotic cells at 2.5 uM incubated for 48 hrs by Annexin V-FITC/PI staining based flow cytometry (reference value: 0.45 %). The class given is functional. In general terms: A flow cytometer gives signals particle by particle.
Data set [7] addresses Signal transducer and activator of transcription 3 (Homo sapiens) (UniProt P40763). In words: Inhibition of STAT3 phosphorylation in human SK-OV-3 cells at 0.5 to 2.5 uM incubated for 48 hrs by Western blot analysis. Format: cell-based. To be noted: dose 0.5-2.5 µM.
Data set [8] has as its system SK-OV-3. Nature of the data set: Induction of apoptosis in human SK-OV-3 cells assessed as early apoptotic cells at 2.5 uM incubated for 48 hrs by Annexin V-FITC/PI staining based flow cytometry (reference value: 0.08 %). The class given is functional.
In data set [9] the test system is KG-1. Nature of the data set: Downregulation of XIAP expression in human KG-1 cells incubated for 48 hrs by Western blot analysis. To be noted: dose 0.5-2.5 µM. Format: functional, cell-based.
Data set [10] deals with SK-OV-3. Nature of the data set: Antiproliferative activity against human SK-OV-3 cells assessed as inhibition of cell growth incubated for 72 hrs by MTT assay. The class given is functional, cell-based. As to conditions: SK-OV-3, 72 h. (Tetrazolium assays rely on reduction of a dye to a coloured formazan, in cell work by metabolically active cells.)
Data set [11] has as its system KG-1. Nature of the data set: Downregulation of c-Myc expression in human KG-1 cells incubated for 48 hrs by Western blot analysis. The class given is functional, cell-based. As to conditions: dose 0.5-2.5 µM.
Data set [12] relates to KG-1. Nature of the data set: Upregulation of Bax expression in human KG-1 cells incubated for 48 hrs by Western blot analysis. The class given is functional, cell-based. To be noted: dose 0.5-2.5 µM.
The subject of data set [13] is THP-1. Nature of the data set: Downregulation of c-Myc expression in human THP-1 cells incubated for 48 hrs by Western blot analysis. Format: functional, cell-based. As to conditions: dose 0.5-2.5 µM.
The test system of data set [14] is KG-1. Nature of the data set: Antiproliferative activity against human KG-1 cells assessed as inhibition of cell growth incubated for 72 hrs by MTT assay. Format: functional, cell-based. As to conditions: KG-1, 72 h.
Data set [15] has as its system U-937. In words: Downregulation of XIAP expression in human U-937 cells incubated for 48 hrs by Western blot analysis. The class given is functional, cell-based.
The nature of data set [16]: Toxicity in nude mouse xenografted with human SK-OV-3 cells assessed as body weight change at 30 to 60 mg/kg, ip qd treated for 14 days. To be noted: in vivo, 336 h, dose 30-60 mg/kg, time 14 day. Format: organism-based.
Data set [17] is described as follows: Toxicity in nude mouse xenografted with human SK-OV-3 cells assessed as histopathological change in spleen at 30 to 60 mg/kg, ip qd treated for 14 days by H and E staining based analysis. Format: organism-based. As to conditions: in vivo, 336 h, dose 30-60 mg/kg, time 14 day.
Data set [18] has as its system U-937. Nature of the data set: Downregulation of Bcl-2 expression in human U-937 cells incubated for 48 hrs by Western blot analysis. The class given is functional, cell-based.
For data set [19], the system named is U-937. In words: Induction of apoptosis in human U-937 cells assessed as change in mitochondrial membrane potential at 2.5 uM incubated for 48 hrs by JC-1 staining based flow cytometry (reference value: 2.20 %). Format: functional.
Data set [20] relates to U-937. In words: Upregulation of p21 expression in human U-937 cells incubated for 48 hrs by Western blot analysis. Format: functional, cell-based.
Data set [21] deals with U-937. Nature of the data set: Induction of apoptosis in human U-937 cells assessed as change in mitochondrial membrane potential at 5 uM incubated for 48 hrs by JC-1 staining based flow cytometry (reference value: 2.20 %). Format: functional.
For data set [22], the system named is U-937. Nature of the data set: Downregulation of TAZ expression in human U-937 cells incubated for 48 hrs by Western blot analysis. Format: functional, cell-based. To be noted: dose 0.5-2.5 µM.
In data set [23] the test system is U-937. Nature of the data set: Induction of apoptosis in human U-937 cells assessed as viable cells at 2.5 uM incubated for 48 hrs by Annexin V-FITC/PI staining based flow cytometry (reference value: 93.30 %). The class given is functional. As to conditions: read-out: Activity.
The subject of data set [24] is U-937. In words: Induction of apoptosis in human U-937 cells assessed as change in mitochondrial membrane potential at 1 uM incubated for 48 hrs by JC-1 staining based flow cytometry (reference value: 2.20 %). Format: functional.
Data set [25] is described as follows: Toxicity in nude mouse xenografted with human SK-OV-3 cells assessed as histopathological change in kidney at 30 to 60 mg/kg, ip qd treated for 14 days by H and E staining based analysis. Format: organism-based. To be noted: in vivo, 336 h, dose 30-60 mg/kg, time 14 day.
The test system of data set [26] is U-937. In words: Induction of apoptosis in human U-937 cells assessed as early apoptotic cells at 0.5 uM incubated for 48 hrs by Annexin V-FITC/PI staining based flow cytometry (reference value: 2.72 %). The class given is functional.
Data set [27] has as its system U-937. In words: Induction of apoptosis in human U-937 cells assessed as viable cells at 1 uM incubated for 48 hrs by Annexin V-FITC/PI staining based flow cytometry (reference value: 93.30 %). Format: functional. As to conditions: read-out: Activity.
For data set [28], the system named is U-937. In words: Induction of apoptosis in human U-937 cells assessed as late apoptotic cells at 2.5 uM incubated for 48 hrs by Annexin V-FITC/PI staining based flow cytometry (reference value: 1.96 %). The class given is functional.
The subject of data set [29] is THP-1. In words: Downregulation of TAZ expression in human THP-1 cells incubated for 48 hrs by Western blot analysis. As to conditions: dose 0.5-2.5 µM. Format: functional, cell-based.
The test system of data set [30] is THP-1. In words: Downregulation of Bcl-2 expression in human THP-1 cells incubated for 48 hrs by Western blot analysis. Format: functional, cell-based. To be noted: dose 0.5-2.5 µM.
A short description of data set [31]: Toxicity in nude mouse xenografted with human SK-OV-3 cells assessed as histopathological change in lungs at 30 to 60 mg/kg, ip qd treated for 14 days by H and E staining based analysis. The class given is organism-based. To be noted: in vivo, 336 h, dose 30-60 mg/kg, time 14 day.
The subject of data set [32] is SK-OV-3. Nature of the data set: Antitumor activity against human SK-OV-3 cells xenografted in nude mouse assessed as reduction cell proliferation at 30 to 60 mg/kg, ip qd treated for 14 days by Ki67 staining based IHC analysis. To be noted: dose 30-60 mg/kg, time 14.0 day. The class given is functional, organism-based.
In data set [33] the test system is U-937. In words: Induction of apoptosis in human U-937 cells assessed as necrotic cells at 1 uM incubated for 48 hrs by Annexin V-FITC/PI staining based flow cytometry (reference value: 2.03 %). The class given is functional.
In data set [34] the test system is U-937. In words: Induction of apoptosis in human U-937 cells assessed as viable cells at 0.5 uM incubated for 48 hrs by Annexin V-FITC/PI staining based flow cytometry (reference value: 93.30 %). Format: functional. As to conditions: read-out: Activity.
A short description of data set [35]: Toxicity in nude mouse xenografted with human SK-OV-3 cells assessed as histopathological change in heart at 30 to 60 mg/kg, ip qd treated for 14 days by H and E staining based analysis. To be noted: in vivo, 336 h, dose 30-60 mg/kg, time 14 day. Format: organism-based.
The test system of data set [36] is SK-OV-3. In words: Downregulation of GLI1 expression in human SK-OV-3 cells incubated for 48 hrs by Western blot analysis. Format: functional, cell-based. To be noted: dose 1-5 µM.
The subject of data set [37] is U-937. Nature of the data set: Induction of apoptosis in human U-937 cells assessed as early apoptotic cells at 1 uM incubated for 48 hrs by Annexin V-FITC/PI staining based flow cytometry (reference value: 2.72 %). The class given is functional.
Data set [38] is described as follows: Toxicity in nude mouse xenografted with human SK-OV-3 cells assessed as histopathological change in liver at 30 to 60 mg/kg, ip qd treated for 14 days by H and E staining based analysis. As to conditions: in vivo, 336 h, dose 30-60 mg/kg, time 14 day. Format: organism-based.
Data set [39] has as its system U-937. In words: Induction of apoptosis in human U-937 cells assessed as late apoptotic cells at 0.5 uM incubated for 48 hrs by Annexin V-FITC/PI staining based flow cytometry (reference value: 1.96 %). The class given is functional.

Activity calls are given as the source filed them. The rule behind the calls is not given here.

Sequence of Signal transducer and activator of transcription 3 (Homo sapiens) (P40763 whole entry): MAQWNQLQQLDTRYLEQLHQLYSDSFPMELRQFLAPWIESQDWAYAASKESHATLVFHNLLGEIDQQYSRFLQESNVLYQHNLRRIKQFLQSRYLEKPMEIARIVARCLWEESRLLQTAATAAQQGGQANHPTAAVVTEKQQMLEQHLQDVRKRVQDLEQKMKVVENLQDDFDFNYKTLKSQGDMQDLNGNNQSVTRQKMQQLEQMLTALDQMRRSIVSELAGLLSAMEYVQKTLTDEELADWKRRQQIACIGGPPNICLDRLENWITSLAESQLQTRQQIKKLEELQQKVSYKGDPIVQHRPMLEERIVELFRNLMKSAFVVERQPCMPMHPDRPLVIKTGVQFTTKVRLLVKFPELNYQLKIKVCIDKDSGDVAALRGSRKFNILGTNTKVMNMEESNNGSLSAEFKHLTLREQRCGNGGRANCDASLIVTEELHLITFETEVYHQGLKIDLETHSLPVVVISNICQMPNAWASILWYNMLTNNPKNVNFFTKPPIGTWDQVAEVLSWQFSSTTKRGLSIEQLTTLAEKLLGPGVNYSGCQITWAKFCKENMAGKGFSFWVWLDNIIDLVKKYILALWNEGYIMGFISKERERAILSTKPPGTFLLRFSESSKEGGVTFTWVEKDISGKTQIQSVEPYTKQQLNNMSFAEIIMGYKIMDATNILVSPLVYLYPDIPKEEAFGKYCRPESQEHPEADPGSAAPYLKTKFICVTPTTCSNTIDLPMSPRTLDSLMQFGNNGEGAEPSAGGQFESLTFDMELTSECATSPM

Consider `CCc1nccnc1C(=O)/C=C/c1ccccn1`, for which the Activity entry was “Dose-dependent-effect” in the data set with KG-1 [1]; “Dose-dependent-effect” with KG-1 [2]; “Dose-dependent-effect” in the data set with SK-OV-3 [3]; “Dose-dependent-effect” with THP-1 [4]; “Dose-dependent-effect” in the data set on SK-OV-3 [5]; 13.09% with THP-1 [6]. The Activity is 0.41% in the data set on SK-OV-3 [8]; “Dose-dependent-effect” in the data set with KG-1 [9]; “Dose-dependent-effect” in the data set with KG-1 [11]; “Dose-dependent-effect” in the data set with KG-1 [12]; “Dose-dependent-effect” in the data set on THP-1 [13]. Further, the inhibition entry in data set [7] is “Active”. Besides, the IC50 (in general, the midpoint of a concentration-inhibition curve) in the data set on SK-OV-3 [10] turned out to be 1.31 µM; in the data set with KG-1 [14], 0.63 µM.
On to `Cc1nccnc1C(=O)/C=C/c1cccc(C#N)c1`, for which the Activity entry in the data set on U-937 [15] is “Dose-dependent-effect”; in data set [16] it was “Non-toxic”; in [17], “Non-toxic”; in the data set with U-937 [18], “Dose-dependent-effect”; in the data set on U-937 [19], 4.53%; in the data set on U-937 [20] it was “Dose-dependent-effect”. Further, the Activity is 21.63% in the data set on U-937 [21]; “Dose-dependent-effect” with U-937 [22]; 3.68% in the data set on U-937 [24]; “Non-toxic” in data set [25]; 9.68% in the data set with U-937 [26]; 9.73% in the data set on U-937 [28]. Further, the Activity in the data set on THP-1 [6] is 15.05%; in the data set with THP-1 [29] it was “Dose-dependent-effect”; in the data set on THP-1 [30] it was “Dose-dependent-effect”; in data set [31], “Non-toxic”; in the data set with SK-OV-3 [8], 0.77%; with KG-1 [9] it was “Dose-dependent-effect”. Besides, the Activity is 3.14% in the data set with U-937 [33]; “Non-toxic” in data set [35]; “Dose-dependent-effect” with SK-OV-3 [36]; 10.98% in the data set on U-937 [37]; “Non-toxic” in data set [38]; 6.79% with U-937 [39]. In the data set with U-937 [23], the viability at 2.5 µM came out at 75.5%. In the data set on U-937 [27], the viability at 1 µM came to 76.2%. The outcome in the data set with SK-OV-3 [32] was Active. Moreover, the results for the IC50 with SK-OV-3 [10] and in the data set with KG-1 [14] were 1.39 µM and 1.79 µM, respectively. In addition, in the data set with U-937 [34], the viability at 0.5 µM stood at 80.9%.
